Assay results taken from US12351819B2, “Method for removing undifferentiated pluripotent stem cells” (priority 2017, dated 2025).

What was measured:
hBMMSCs = assay: Adipogenesis and Oil Red O assay; type: cell-based, human; details: 2.5 μM 24 hours, drug removed; oil red O.D 510 nm
Method: Next, drugs were removed, and the cells were cultured in MSCgo™ Adipogenic Differentiation Medium (Biological Industries). The media was changed every 3-4 days for 8-12 days. After the adipogenic induction, we replaced the MSCgo™ Adipogenic complete medium with MSC maintenance medium for 6-9 days. The cells were carefully fixed with 4% formaldehyde for 1 hour at room temperature, washed with 60% isopropanol, and air-dried. The lipid drops were stained with Oil Red O working solution (30 ml 0.35% oil red solution in isopropanol diluted with 20 ml of distilled water) for 10 minutes. Next, the cells were washed with water 4 times. For quantification, Oil Red O stain was extracted with 100% isopropanol, and the absorbance at 510 nm was detected.

[1] = test system: cleaved PARP, caspase3, caspase7 in hESC-MSCs; assay: Western blot of apoptotic markers, hESC-MSCs; type: cell-based, human; details: 2.5 μM, 12 hours
Method: (§1) RIPA buffer was used to harvest cell lysates (RIPA buffer: NaCl 150 mM, Tris pH 8.0 50 mM, EDTApH 8.0 5 mM, NP-40 1.0%, SDS 0.5%, sodium deoxycholate 0.1%). Western blot analyses were performed as previously described with different types of primary antibodies^29. The primary antibody includes anti-β-actin (A5441; Sigma), anti-Oct4 (sc-9081; Santa Cruz Biotechnology, Santa Cruz, CA, USA), anti-Nanog (3580; Cell Signaling Technology, Danvers, MA, USA), apoptosis antibody kit (9915; Cell Signaling Technology), ATP1A1 (3010; Cell Signaling Technology), and ATP1A2 (16836-1-AP; Proteintech™) were used. After reaction at 4° C. overnight, the blots were incubated with goat anti-mouse- or goat anti-rabbit antibody conjugated with horseradish peroxidase (Jackson ImmunoResearch Inc). The chemiluminescent substrate (WBKLS0500; Millipore, Darmstadt, Germany) was used to detect the blots. Fujifilm LAS-4000 (FUJIFILM, Tokyo, Japan) was used to take the images.

hESCs teratoma formation = assay: In vivo tumorigenicity assay (teratoma formation of treated hESCs); details: hESCs treated 24 hours before subcutaneous injection into NSG mice; 8 weeks; vs DMSO
Method: Approximately 10^6 treated cells were mixed with 10^5 MEFs to promote teratoma formation in 50 μl PBS^32. The cells mixture and 1× Matrigel Matrix was mixed well and the cells were subcutaneously injected into NOD scid gamma mice (NSG mice) for 8 weeks. After 8 weeks, animals were sacrificed and teratoma was removed, fixed in 10% formalin, embedded in paraffin and stained with hematoxylin and eosin. H&E stain protocol was modified from previous study^33. For immunohistochemistry, teratoma sections were blocked using 5% milk for 1 hour, and stained with primary antibody at 4° C. overnight, follow by secondary antibody (Dako, Santa Clara, CA, USA) for 1 hour at RT and DAB enhancer (Dako). Primary antibody: anti-human alpha-1-fetoprotein (A0008, Dako) for endoderm lineage; anti-human smooth muscle actin, clone 1A4 (M0851, Dako) for mesoderm lineage; anti-Tuj1 (MAB1637, EMD Millipore, Darmstadt, Germany) for ectoderm.

[2] = test system: hESC-hepatocyte endoderm cells; assay: LDH cytotoxicity assay in hESC-derived hepatocyte endoderm; type: cell-based, human; details: Table 1
Method: This protocol followed a method previously published in Nature Protocols^36. The hESCs were detached by 0.5 mM EDTA (Life Technologies, Camarillo, C, USA), seeded on VTN-N coated culture plates (Corning) and maintained for 48 hours in mTeSR 1 medium. Then, the medium was refreshed daily for all following steps. On days 1-2, the medium was replaced with fresh CDM-PVA (consisting of 0.5 g of PVA (Sigma) dissolved in 250 ml of IMDM/F-12, GlutaMAX (Invitrogen), 250 ml of IMDM (Invitrogen), 5 ml of chemically defined lipid concentrate (Invitrogen), 20 of thioglycerol 97% (Sigma), 350 of insulin (10 mg/ml; Roche), 250 of transferrin (30 mg/ml; Roche) plus Activin A (100 ng/ml; R&D), bFGF (80 ng/ml; R&D), BMP4 (10 ng/ml; R&D), and […] of LY-294002 (Promega). On day 3, the cells were differentiated in RPMI Medium supplemented with Activin A (100 ng/ml) and bFGF (80 ng/ml). On days 4-6, the cells were expanded in RPMI medium supplemented with Activin A (50 ng/ml). On day 7, the cells were passaged and re-plated 105,000 cells/cm^2 cells in VTN-N coated culture plates in RPMI containing Activin A (50 ng/ml) and Y-27632 2HCl (10 μM Selleck-chem, Houston, TX, USA and Munich, Germany). Then, the cells were maintained in RPMI+Activin A (50 ng/ml) on days 8-11. The cells were differentiated into the hepatocyte endoderm and analyzed following the drug treatments. The expression of alpha-fetoprotein (A0008, Dako, Santa Clara, CA, USA) was analyzed in the hepatocyte endoderm via immunofluorescence staining.

Nanog in hESCs = assay: Western blot of pluripotent stem cell marker Nanog, hESCs; type: cell-based, human; details: 2.5 μM, 12 hours
Method: as §1

SMILES | differentiation ability of hBMMSCs into adipocytes (hBMMSCs) | cleaved form of apoptosis markers in hESC-MSCs [1] | tumor (teratoma) weight (hESCs teratoma formation) | LDH assay positive, hepatocyte endoderm cells [2] | protein levels of Nanog in hESCs (Nanog in hESCs)
C[C@H]1O[C@@H](O[C@H]2[C@@H](O)C[C@H](O[C@H]3[C@@H](O)C[C@H](O[C@H]4CC[C@@]5(C)[C@H](CC[C@@H]6[C@@H]5C[C@@H](O)[C@]5(C)[C@@H](C7=CC(=O)OC7)CC[C@]65O)C4)O[C@@H]3C)O[C@@H]2C)C[C@H](O)[C@@H]1O [Digoxin, digoxin] | neither digoxin nor lanatoside C affected the differentiation ability | no cleaved form of the apoptosis markers was detected | significantly decreased | −/+ (10% positive cells) | downregulated
CC(=O)O[C@H]1C[C@H](O[C@H]2[C@@H](O)C[C@H](O[C@H]3[C@@H](O)C[C@H](O[C@H]4CC[C@@]5(C)[C@H](CC[C@@H]6[C@@H]5C[C@@H](O)[C@]5(C)[C@@H](C7=CC(=O)OC7)CC[C@]65O)C4)O[C@@H]3C)O[C@@H]2C)O[C@H](C)[C@H]1O[C@@H]1O[C@H](CO)[C@@H](O)[C@H](O)[C@H]1O [Lanatoside C, lanatoside C] | neither digoxin nor lanatoside C affected the differentiation ability | no cleaved form of the apoptosis markers was detected | significantly decreased | −/+ (10% positive cells) | downregulated
